# Assay results from paper PMC12300041, “Tricyclic Isatin Derivatives as Anti-Inflammatory Compounds with High Kinase Binding Affinity” (Molecules, 2025).
# Legend:
# Experiment in all cases: KINOMEscan
# Type in all cases: binding
# [1] = target: T1, ABL1 (Y253F)-P (Homo sapiens, UniProt P00519, Y253F)
# T1 construct: purchased Eurofins DiscoverX KINOMEscan
# Outline: (§1)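 Kd determination: 12-pt half-log series, top 33 μM; 1 h binding, RT; unbound kinase pulled down on immobilized ligand, measured by qPCR.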
# [2] = target: T2, BRAF (V600E) (Homo sapiens, UniProt P15056, V600E)
# T2 construct: purchased Eurofins DiscoverX KINOMEscan
# Outline: as §1
# [3] = target: T3, CAMK2B (Homo sapiens, UniProt Q13554)
# T3 construct: purchased Eurofins DiscoverX KINOMEscan
# Outline: as §1
# [4] = target: T4, CDC2L1 (Homo sapiens, UniProt P21127)
# T4 construct: purchased Eurofins DiscoverX KINOMEscan
# Outline: as §1
# [5] = target: T5, CDK11 (Homo sapiens, UniProt Q9BWU1)
# T5 construct: purchased Eurofins DiscoverX KINOMEscan
# Outline: as §1
# [6] = target: T6, CDK4 (Homo sapiens, UniProt P11802)
# T6 construct: purchased Eurofins DiscoverX KINOMEscan
# Outline: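 Read-out is qPCR of kinase not bound to the test compound, recovered by capture on an immobilized affinity ligand after a 1 h room-temperature binding step. Dissociation constants came from 12 half-log dilutions starting at 33 μM.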
# [7] = target: T7, DCAMKL1 (Homo sapiens, UniProt O15075)
# T7 construct: purchased Eurofins DiscoverX KINOMEscan
# Outline: as §1
# [8] = target: T8, DCAMKL2 (Homo sapiens, UniProt Q8N568)
# T8 construct: purchased Eurofins DiscoverX KINOMEscan
# Outline: (§2)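 Quantitative PCR measured kinase retained on an immobilized affinity ligand, i.e. kinase not bound by test compound, after 1 h binding at room temperature. Kd came from 12 half-log concentrations up to 33 μM.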
# [9] = target: T9, DYRK2 (Homo sapiens, UniProt Q92630)
# T9 construct: purchased Eurofins DiscoverX KINOMEscan
# Outline: as §1
# [10] = target: T10, EGFR (L858R) (Homo sapiens, UniProt P00533, L858R)
# T10 construct: purchased Eurofins DiscoverX KINOMEscan
# Outline: as §2
# [11] = target: T11, EGFR (L861Q) (Homo sapiens, UniProt P00533, L861Q)
# T11 construct: purchased Eurofins DiscoverX KINOMEscan
# Outline: as §1
# [12] = target: T12, ERBB3 (Homo sapiens, UniProt P21860)
# T12 construct: purchased Eurofins DiscoverX KINOMEscan
# Outline: as §1
# [13] = target: T13, ERK5 (Homo sapiens, UniProt Q13164)
# T13 construct: purchased Eurofins DiscoverX KINOMEscan
# Outline: as §1
# [14] = target: T14, ERN1 (Homo sapiens, UniProt O75460)
# T14 construct: purchased Eurofins DiscoverX KINOMEscan
# Outline: as §1
# [15] = target: T15, FAK (Homo sapiens, UniProt Q05397)
# T15 construct: purchased Eurofins DiscoverX KINOMEscan
# Outline: as §1
# [16] = target: T16, FGFR1 (Homo sapiens, UniProt P11362)
# T16 construct: purchased Eurofins DiscoverX KINOMEscan
# Outline: as §1
# [17] = target: T17, FGFR3 (Homo sapiens, UniProt P22607)
# T17 construct: purchased Eurofins DiscoverX KINOMEscan
# Outline: as §2
# [18] = target: T18, FLT1 (Homo sapiens, UniProt P17948)
# T18 construct: purchased Eurofins DiscoverX KINOMEscan
# Outline: as §2
# [19] = target: T19, IKK-ε (Homo sapiens, UniProt Q14164)
# T19 construct: purchased Eurofins DiscoverX KINOMEscan
# Outline: as §2
# [20] = target: T20, LZK (Homo sapiens, UniProt O43283)
# T20 construct: purchased Eurofins DiscoverX KINOMEscan
# Outline: as §1
# [21] = target: T21, MARK4 (Homo sapiens, UniProt Q96L34)
# T21 construct: purchased Eurofins DiscoverX KINOMEscan
# Outline: as §2
# [22] = target: T22, MKK7 (Homo sapiens, UniProt O14733)
# T22 construct: purchased Eurofins DiscoverX KINOMEscan
# Outline: as §1
# [23] = target: T23, MRCKA (Homo sapiens, UniProt Q5VT25)
# T23 construct: purchased Eurofins DiscoverX KINOMEscan
# Outline: as §1
# [24] = target: T24, MST1 (Homo sapiens, UniProt Q13043)
# T24 construct: purchased Eurofins DiscoverX KINOMEscan
# Outline: as §1
# [25] = target: T25, MUSK (Homo sapiens, UniProt O15146)
# T25 construct: purchased Eurofins DiscoverX KINOMEscan
# Outline: as §1
# [26] = target: T26, OSR1 (Homo sapiens, UniProt O95747)
# T26 construct: purchased Eurofins DiscoverX KINOMEscan
# Outline: as §1
# [27] = target: T27, PIK3CB (Homo sapiens, UniProt P42338)
# T27 construct: purchased Eurofins DiscoverX KINOMEscan
# Outline: as §2
# [28] = target: T28, RET (V804L) (Homo sapiens, UniProt P07949, V804L)
# T28 construct: purchased Eurofins DiscoverX KINOMEscan
# Outline: as §2
# [29] = target: T29, RPS6KA4 (Kin. Dom.1-N-term.) (Homo sapiens, UniProt O75676)
# T29 construct: RPS6KA4 (Kin. Dom.1-N-term.); purchased Eurofins DiscoverX KINOMEscan
# Outline: as §2
# [30] = target: T30, RSK4 (Kin. Dom.2-C-term.) (Homo sapiens, UniProt Q9UK32)
# T30 construct: RSK4 (Kin. Dom.2-C-term.); purchased Eurofins DiscoverX KINOMEscan
# Outline: as §1
# [31] = target: T31, TAOK2 (Homo sapiens, UniProt Q9UL54)
# T31 construct: purchased Eurofins DiscoverX KINOMEscan
# Outline: as §1
# [32] = target: T32, TAOK3 (Homo sapiens, UniProt Q9H2K8)
# T32 construct: purchased Eurofins DiscoverX KINOMEscan
# Outline: as §1
# [33] = target: T33, TNIK (Homo sapiens, UniProt Q9UKE5)
# T33 construct: purchased Eurofins DiscoverX KINOMEscan
# Outline: as §1
# [34] = target: T34, TTK (Homo sapiens, UniProt P33981)
# T34 construct: purchased Eurofins DiscoverX KINOMEscan
# Outline: as §1
# [35] = target: T35, WNK3 (Homo sapiens, UniProt Q9BYP7)
# T35 construct: purchased Eurofins DiscoverX KINOMEscan
# Outline: as §1
# [36] = target: T36, YANK1 (Homo sapiens, UniProt Q8WU08)
# T36 construct: purchased Eurofins DiscoverX KINOMEscan
# Outline: as §1
# [37] = target: T37, ZAP70 (Homo sapiens, UniProt P43403)
# T37 construct: purchased Eurofins DiscoverX KINOMEscan
# Outline: as §1
# [38] = target: T38, p38-σ (Homo sapiens, UniProt O15264)
# T38 construct: purchased Eurofins DiscoverX KINOMEscan
# Outline: as §1
# T22 sequence (O14733 whole entry): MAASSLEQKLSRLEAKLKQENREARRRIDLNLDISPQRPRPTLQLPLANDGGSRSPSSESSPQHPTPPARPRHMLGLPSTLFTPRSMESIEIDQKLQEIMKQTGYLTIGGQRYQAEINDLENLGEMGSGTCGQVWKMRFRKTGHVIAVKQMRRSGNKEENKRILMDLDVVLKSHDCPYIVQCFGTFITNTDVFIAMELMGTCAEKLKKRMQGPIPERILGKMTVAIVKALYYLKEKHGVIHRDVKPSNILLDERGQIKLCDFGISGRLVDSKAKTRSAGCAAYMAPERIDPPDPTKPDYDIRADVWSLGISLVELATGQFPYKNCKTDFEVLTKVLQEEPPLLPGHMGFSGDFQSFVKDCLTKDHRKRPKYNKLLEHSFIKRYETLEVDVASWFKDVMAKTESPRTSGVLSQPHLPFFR
# T31 sequence (Q9UL54 whole entry): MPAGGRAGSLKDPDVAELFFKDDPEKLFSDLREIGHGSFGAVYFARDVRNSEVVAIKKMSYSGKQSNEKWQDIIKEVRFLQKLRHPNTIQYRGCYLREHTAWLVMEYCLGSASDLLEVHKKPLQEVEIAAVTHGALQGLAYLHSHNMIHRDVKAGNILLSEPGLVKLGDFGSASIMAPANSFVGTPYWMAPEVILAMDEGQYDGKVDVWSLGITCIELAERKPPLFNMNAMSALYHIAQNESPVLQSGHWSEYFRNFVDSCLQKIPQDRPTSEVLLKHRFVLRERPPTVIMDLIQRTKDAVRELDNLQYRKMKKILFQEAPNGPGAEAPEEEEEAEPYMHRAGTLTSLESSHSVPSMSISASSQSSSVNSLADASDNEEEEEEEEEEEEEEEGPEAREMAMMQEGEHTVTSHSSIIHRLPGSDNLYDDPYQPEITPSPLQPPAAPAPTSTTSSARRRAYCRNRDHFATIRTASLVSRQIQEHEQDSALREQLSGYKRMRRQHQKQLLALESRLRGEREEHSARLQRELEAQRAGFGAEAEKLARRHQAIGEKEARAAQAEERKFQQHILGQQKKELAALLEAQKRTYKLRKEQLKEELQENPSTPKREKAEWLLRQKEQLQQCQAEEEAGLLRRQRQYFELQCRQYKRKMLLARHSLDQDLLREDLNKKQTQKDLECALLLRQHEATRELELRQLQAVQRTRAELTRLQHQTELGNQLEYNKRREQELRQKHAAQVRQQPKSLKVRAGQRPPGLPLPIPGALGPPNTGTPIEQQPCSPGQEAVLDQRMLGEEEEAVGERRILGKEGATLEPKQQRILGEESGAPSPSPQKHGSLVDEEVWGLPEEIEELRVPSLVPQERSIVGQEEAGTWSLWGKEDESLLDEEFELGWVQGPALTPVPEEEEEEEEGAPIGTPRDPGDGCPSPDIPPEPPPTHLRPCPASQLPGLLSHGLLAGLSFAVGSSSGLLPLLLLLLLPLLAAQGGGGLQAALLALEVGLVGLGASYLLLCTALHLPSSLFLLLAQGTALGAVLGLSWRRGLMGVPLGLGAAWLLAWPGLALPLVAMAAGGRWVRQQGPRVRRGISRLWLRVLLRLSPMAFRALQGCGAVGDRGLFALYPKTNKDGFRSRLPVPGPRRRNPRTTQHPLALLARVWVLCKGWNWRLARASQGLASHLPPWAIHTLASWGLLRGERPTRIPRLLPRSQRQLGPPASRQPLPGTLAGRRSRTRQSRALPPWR
# T3 sequence (Q13554 whole entry): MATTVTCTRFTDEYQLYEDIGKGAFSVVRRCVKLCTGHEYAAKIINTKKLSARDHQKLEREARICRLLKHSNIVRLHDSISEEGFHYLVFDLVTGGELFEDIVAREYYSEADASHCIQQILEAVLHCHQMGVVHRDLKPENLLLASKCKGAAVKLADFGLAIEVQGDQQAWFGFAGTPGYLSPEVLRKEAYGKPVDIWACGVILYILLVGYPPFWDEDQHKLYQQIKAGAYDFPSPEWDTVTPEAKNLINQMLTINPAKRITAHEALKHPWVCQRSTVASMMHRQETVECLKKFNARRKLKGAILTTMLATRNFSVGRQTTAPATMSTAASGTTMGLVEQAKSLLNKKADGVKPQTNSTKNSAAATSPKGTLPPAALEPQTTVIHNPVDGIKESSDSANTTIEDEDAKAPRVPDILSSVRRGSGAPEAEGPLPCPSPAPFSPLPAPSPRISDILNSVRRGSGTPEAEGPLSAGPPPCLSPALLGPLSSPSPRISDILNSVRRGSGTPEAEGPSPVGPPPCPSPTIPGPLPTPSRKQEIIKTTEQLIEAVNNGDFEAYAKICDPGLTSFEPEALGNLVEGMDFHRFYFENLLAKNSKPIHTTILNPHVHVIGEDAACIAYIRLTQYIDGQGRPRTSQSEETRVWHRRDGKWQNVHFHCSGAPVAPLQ
# T10 sequence (P00533 25-1210 L858R): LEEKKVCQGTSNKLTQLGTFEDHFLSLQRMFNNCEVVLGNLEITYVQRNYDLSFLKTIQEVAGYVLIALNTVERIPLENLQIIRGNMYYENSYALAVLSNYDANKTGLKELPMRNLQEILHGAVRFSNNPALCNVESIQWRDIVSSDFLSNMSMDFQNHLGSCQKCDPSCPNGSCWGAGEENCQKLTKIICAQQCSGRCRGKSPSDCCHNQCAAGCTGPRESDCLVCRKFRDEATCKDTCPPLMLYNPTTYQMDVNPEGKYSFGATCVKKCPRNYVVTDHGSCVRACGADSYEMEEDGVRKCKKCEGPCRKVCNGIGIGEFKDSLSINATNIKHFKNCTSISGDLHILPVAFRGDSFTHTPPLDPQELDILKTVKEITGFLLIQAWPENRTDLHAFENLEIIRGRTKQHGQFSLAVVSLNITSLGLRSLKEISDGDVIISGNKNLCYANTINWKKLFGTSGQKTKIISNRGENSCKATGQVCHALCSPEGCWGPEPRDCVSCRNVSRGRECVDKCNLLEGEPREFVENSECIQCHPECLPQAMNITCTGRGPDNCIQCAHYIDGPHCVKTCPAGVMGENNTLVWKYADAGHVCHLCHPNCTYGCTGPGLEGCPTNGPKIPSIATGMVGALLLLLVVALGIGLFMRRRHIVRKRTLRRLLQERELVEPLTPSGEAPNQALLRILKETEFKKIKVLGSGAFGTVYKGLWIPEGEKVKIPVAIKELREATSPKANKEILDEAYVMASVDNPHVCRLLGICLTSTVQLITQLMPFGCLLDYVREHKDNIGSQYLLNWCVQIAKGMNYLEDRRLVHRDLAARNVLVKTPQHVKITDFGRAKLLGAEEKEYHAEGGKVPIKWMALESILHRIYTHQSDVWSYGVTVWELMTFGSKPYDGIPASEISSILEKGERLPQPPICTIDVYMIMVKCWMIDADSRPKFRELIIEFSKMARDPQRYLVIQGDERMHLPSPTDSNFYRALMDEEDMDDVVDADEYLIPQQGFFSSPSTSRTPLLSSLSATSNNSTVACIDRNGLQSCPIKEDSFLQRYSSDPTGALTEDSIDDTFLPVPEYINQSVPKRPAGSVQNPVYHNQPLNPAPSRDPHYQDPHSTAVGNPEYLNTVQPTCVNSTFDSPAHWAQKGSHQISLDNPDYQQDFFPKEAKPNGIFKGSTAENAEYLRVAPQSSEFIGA
# T15 sequence (Q05397 whole entry): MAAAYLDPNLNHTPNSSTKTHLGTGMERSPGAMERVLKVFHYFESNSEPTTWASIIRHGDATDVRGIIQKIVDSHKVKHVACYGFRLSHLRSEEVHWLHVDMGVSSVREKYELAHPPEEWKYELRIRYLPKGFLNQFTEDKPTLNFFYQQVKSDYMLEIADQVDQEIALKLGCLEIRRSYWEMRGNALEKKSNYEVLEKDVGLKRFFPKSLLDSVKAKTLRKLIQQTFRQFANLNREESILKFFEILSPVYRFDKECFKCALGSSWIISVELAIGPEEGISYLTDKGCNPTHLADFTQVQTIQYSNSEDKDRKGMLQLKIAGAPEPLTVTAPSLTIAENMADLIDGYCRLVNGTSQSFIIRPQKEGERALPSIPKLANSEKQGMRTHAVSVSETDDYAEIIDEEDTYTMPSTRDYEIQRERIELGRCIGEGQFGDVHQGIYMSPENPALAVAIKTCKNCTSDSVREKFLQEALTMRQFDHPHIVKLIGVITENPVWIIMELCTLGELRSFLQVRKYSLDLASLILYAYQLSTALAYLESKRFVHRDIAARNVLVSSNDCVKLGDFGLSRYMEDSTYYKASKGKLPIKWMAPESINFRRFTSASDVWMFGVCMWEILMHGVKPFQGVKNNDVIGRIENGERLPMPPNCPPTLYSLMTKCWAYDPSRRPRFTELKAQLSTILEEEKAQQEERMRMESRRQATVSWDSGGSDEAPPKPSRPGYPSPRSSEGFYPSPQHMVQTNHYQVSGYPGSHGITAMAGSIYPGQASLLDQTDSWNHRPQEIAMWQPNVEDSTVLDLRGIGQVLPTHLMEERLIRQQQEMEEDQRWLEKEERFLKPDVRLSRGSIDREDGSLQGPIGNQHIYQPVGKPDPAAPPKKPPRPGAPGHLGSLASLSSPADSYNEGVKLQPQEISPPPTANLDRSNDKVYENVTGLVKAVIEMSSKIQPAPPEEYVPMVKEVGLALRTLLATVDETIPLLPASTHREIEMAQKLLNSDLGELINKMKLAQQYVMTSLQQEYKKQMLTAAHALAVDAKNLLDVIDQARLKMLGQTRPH
# T26 sequence (O95747 whole entry): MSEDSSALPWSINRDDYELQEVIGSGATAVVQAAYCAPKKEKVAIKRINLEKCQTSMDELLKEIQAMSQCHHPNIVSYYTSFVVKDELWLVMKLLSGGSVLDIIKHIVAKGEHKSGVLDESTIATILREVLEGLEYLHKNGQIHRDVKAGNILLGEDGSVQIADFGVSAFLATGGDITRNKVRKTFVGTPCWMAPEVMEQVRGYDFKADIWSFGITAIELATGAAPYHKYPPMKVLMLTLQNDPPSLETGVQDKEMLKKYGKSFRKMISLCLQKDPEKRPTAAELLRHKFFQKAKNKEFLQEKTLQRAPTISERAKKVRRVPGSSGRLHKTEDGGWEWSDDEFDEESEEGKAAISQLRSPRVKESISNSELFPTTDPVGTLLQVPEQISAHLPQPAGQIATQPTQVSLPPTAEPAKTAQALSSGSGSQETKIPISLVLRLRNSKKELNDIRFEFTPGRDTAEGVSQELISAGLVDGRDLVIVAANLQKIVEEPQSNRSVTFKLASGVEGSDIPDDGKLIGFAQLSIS
structure (smiles),measurement,setting,value
"O=C1Nc2c(cc([N+](=O)[O-])c3c2CCCC3)C1=NO [Compound 5d, 3-(Hydroxyimino)-5-nitro-1,3,6,7,8,9-hexahydro-2H-benzo[g]indol-2-one]",inhibition at 10 µM,[1],41%
same,inhibition at 10 µM,[2],23%
same,inhibition at 10 µM,[3],70%
same,inhibition at 10 µM,[4],0%
same,inhibition at 10 µM,[5],1%
same,inhibition at 10 µM,[6],7%
same,inhibition at 10 µM,[7],29%
same,inhibition at 10 µM,[8],0%
same,inhibition at 10 µM,[9],81%
same,inhibition at 10 µM,[10],17%
same,inhibition at 10 µM,[11],12%
same,inhibition at 10 µM,[12],0%
same,inhibition at 10 µM,[13],0%
same,inhibition at 10 µM,[14],29%
same,inhibition at 10 µM,[15],19%
same,inhibition at 10 µM,[16],5%
same,inhibition at 10 µM,[17],14%
same,inhibition at 10 µM,[18],12%
same,inhibition at 10 µM,[19],23%
same,inhibition at 10 µM,[20],0%
same,inhibition at 10 µM,[21],20%
same,inhibition at 10 µM,[22],0%
same,Inhib. (%),[22]; 10 μM,inactive
same,inhibition at 10 µM,[23],17%
same,inhibition at 10 µM,[24],32%
same,inhibition at 10 µM,[25],0%
same,inhibition at 10 µM,[26],25%
same,inhibition at 10 µM,[27],0%
same,inhibition at 10 µM,[28],2%
same,inhibition at 10 µM,[29],26%
same,inhibition at 10 µM,[30],36%
same,inhibition at 10 µM,[31],37%
same,inhibition at 10 µM,[32],65%
same,inhibition at 10 µM,[33],65%
same,inhibition at 10 µM,[34],95.6%
same,inhibition at 10 µM,[35],28%
same,inhibition at 10 µM,[36],11%
same,inhibition at 10 µM,[37],2%
same,inhibition at 10 µM,[38],7%
